Test results as given in the supplement of paper PMC10307832.

Key:
Assay in all cases: relative viability (nuclei count vs DMSO), 5 days (fraction); higher = more cells survive
[1] = compound: Cn1cc(-c2cnn3c(N)c(Br)c([C@@H]4CCCNC4)nc23)cn1 + C[C@]1(O)C[C@@H](c2nc(-c3ccc4ccc(-c5ccccc5)nc4c3)c3c(N)nccn32)C1 [Linsitinib] (partner 1 µM)
In short: (§1)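 Relative viability was taken as the ratio of nuclei in treated wells to nuclei in vehicle wells. Lung cancer cell lines in 1536-well plates received compounds by pin tool one day after seeding, either one drug alone or a fixed anchor-drug dose plus five library-drug doses (not always all listed) in √10 steps. Nuclei were counted on 4× images after 5 days of treatment, and values are medians of duplicate plates.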

[2] = compound: Cn1cc(-c2cnn3c(N)c(Br)c([C@@H]4CCCNC4)nc23)cn1 + CC1(C)CCC(c2ccc(Cl)cc2)=C(CN2CCN(c3ccc(C(=O)NS(=O)(=O)c4ccc(N[C@H](CCN5CCOCC5)CSc5ccccc5)c(S(=O)(=O)C(F)(F)F)c4)cc3)CC2)C1 [Navitoclax] (partner 0.5 µM)
In short: as §1

[3] = compound: Cn1cc(-c2cnn3c(N)c(Br)c([C@@H]4CCCNC4)nc23)cn1 + COc1cc2c(Oc3ccc(NC(=O)C4(C(=O)Nc5ccc(F)cc5)CC4)cc3F)ccnc2cc1OCCCN1CCOCC1 [Foretinib] (partner 0.25 µM)
In short: as §1

[4] = compound: Cn1cc(-c2cnn3c(N)c(Br)c([C@@H]4CCCNC4)nc23)cn1 + CCNC(=O)c1noc(-c2cc(C(C)C)c(O)cc2O)c1-c1ccc(CN2CCOCC2)cc1 [Luminespib] (partner 0.01 µM)
In short: as §1

| Cell Line | relative viability ([1]; first compound 0.05 µM) | relative viability ([1]; first compound 0.1581 µM) | relative viability ([1]; first compound 0.5 µM) | relative viability ([1]; first compound 1.581 µM) | relative viability ([1]; first compound 5 µM) | relative viability ([2]; first compound 0.05 µM) | relative viability ([2]; first compound 0.1581 µM) | relative viability ([2]; first compound 0.5 µM) | relative viability ([2]; first compound 1.581 µM) | relative viability ([2]; first compound 5 µM) | relative viability ([3]; first compound 0.05 µM) | relative viability ([3]; first compound 0.1581 µM) | relative viability ([3]; first compound 0.5 µM) | relative viability ([3]; first compound 1.581 µM) | relative viability ([3]; first compound 5 µM) | relative viability ([4]; first compound 0.05 µM) | relative viability ([4]; first compound 0.1581 µM) | relative viability ([4]; first compound 0.5 µM) | relative viability ([4]; first compound 1.581 µM) | relative viability ([4]; first compound 5 µM) |
| --- | --- | --- | --- | --- | --- | --- | --- | --- | --- | --- | --- | --- | --- | --- | --- | --- | --- | --- | --- | --- |
| LOU-NH91 | 0.963 | 0.868 | 0.929 | 0.899 | 0.734 | 0.732 | 0.666 | 0.644 | 0.67 | 0.474 | 0.928 | 0.879 | 0.91 | 0.926 | 0.781 | 0.321 | 0.368 | 0.285 | 0.667 | 0.307 |
| NCI-H358 | 0.7 | 0.626 | 0.608 | 0.581 | 0.523 |  |  |  |  |  | 0.685 | 0.768 | 0.654 | 0.59 | 0.628 | 0.546 | 0.281 | 0.437 | 0.261 | 0.152 |
| NCI-H522 |  |  |  |  |  |  |  |  |  |  |  |  |  |  |  | 1.23 | 1.26 | 1.17 | 1 | 0.87 |
| NCI-H650 | 0.808 | 0.775 | 0.846 | 0.795 | 0.657 |  |  |  |  |  | 1.14 | 1.03 | 1.02 | 1 | 0.881 | 0.807 | 0.872 | 0.749 | 0.811 | 0.345 |
| NCI-H661 | 0.557 | 0.592 | 0.579 | 0.479 | 0.314 |  |  |  |  |  | 1.05 | 0.991 | 0.979 | 1.02 | 0.932 | 0.953 | 0.953 | 0.991 | 0.829 | 0.729 |
| NCI-H1299 | 1.02 | 1.04 | 0.959 | 0.833 | 0.626 | 1.03 | 1.06 | 1.08 | 1.02 | 0.936 | 1.08 | 1.14 | 1.12 | 0.988 | 0.833 |  |  |  |  |  |
| NCI-H1563 | 1.13 | 1.27 | 1.26 | 1.17 | 0.848 |  |  |  |  |  | 0.939 | 1.02 | 0.841 | 0.921 | 0.875 | 0.62 | 0.578 | 0.51 | 0.55 | 0.37 |
| NCI-H1650 |  |  |  |  |  | 1.27 | 1.23 | 1.25 | 0.845 | 0.67 |  | 1.3 | 1.2 | 1.05 | 0.658 |  | 0.146 | 0.241 | 0.194 | 0.186 |
| NCI-H1703 | 0.72 | 0.586 | 0.539 | 0.336 | 0.119 | 1.08 | 0.441 | 0.309 | 0.147 | 0.122 | 0.334 | 0.288 | 0.337 | 0.196 | 0.178 |  |  |  |  |  |
| NCI-H1792 | 0.709 | 0.531 | 0.347 | 0.327 | 0.274 | 0.35 | 0.674 | 0.322 | 0.366 | 0.677 |  |  |  |  |  | 0.488 | 0.616 | 0.439 | 0.79 | 0.317 |
| NCI-H2170 |  |  |  |  |  | 0.584 | 0.554 | 0.453 | 0.527 | 0.713 | 1.02 | 0.934 | 0.963 | 1.02 | 1.1 | 0.837 | 0.561 | 0.799 | 0.931 | 0.422 |
| NCI-H2342 |  |  |  |  |  |  |  |  |  |  | 1.13 | 1.19 | 1.09 | 0.92 | 1.07 | 0.764 | 0.88 | 0.773 | 0.708 | 0.615 |
